Results taken from patent US20150291597A1, “NOVEL ORALLY BIOAVAILABLE BREATHING CONTROL MODULATING COMPOUNDS, AND METHODS OF USING SAME” (Galleon Pharmaceuticals, Inc., priority 2012, published 2015).
“Also recorded” adds a separate entry of the source. Structures can show the parent of a compound that is named as a salt.

Tests used:
[1] = Pharmacokinetics and oral bioavailability in the rat (IV and PO dosing, plasma LC-MS/MS); format: in vivo, Sprague-Dawley rats; settings: Sprague-Dawley, oral versus intravenous dosing
Protocol: Sprague-Dawley rats (200-300 g) were fed a standard laboratory rodent diet and housed in individual cages on a 12-hour light and 12-hour dark cycle with room temperature maintained at 22±3° C. and relative humidity at 50±20%. Rats were fasted overnight before dosing, with food returned after the 6 hour blood samples were obtained. Bedding was removed until after the 6 hour blood samples were obtained. Water was provided ad libitum throughout the study.
Dosing solution of test compound was prepared in desired oral formulation for oral administration via gavage needle at 10-30 mg/kg (10 mL/kg) to three or four rats. All blood samples (250 uL per sample) were taken via jugular vein or femoral vein at 0 (predose), 15, and 30 min and 1, 2,4, 6, 8, and 24 h after oral dosing. […]
Plasma samples (incurred study samples, calibration standards, quality controls) were normally prepared as follows. […] Calibration standards were typically prepared in the range of 2 ng/ml to 10 μg/mL for quantitation. […]
All pharmacokinetic parameters were determined based on a non-compartmental approach using WinNonlin software (Pharsight, Version 5.1). The terminal elimination half-life (t1/2) was calculated as ln2/λz using the slope (λz) from linear regression analysis of the terminal phase of the plasma concentration-time curve on a semi-log scale. […]

anesthetized rats = test: Anesthetized rat spirometry screening assay (respiratory rate, tidal volume, minute volume; IV bolus); format: in vivo; settings: 0.3 mg/kg IV bolus
Text: Anesthetized rats provide a quick method of screening compounds for respiratory and cardiovascular activity. In contrast to the conscious rat model, this model offers an experimental set up with less variation in the baseline cardiovascular and respiratory measures. Compounds screened in this assay may be examined in a conscious rat model.
Rats were initially anesthetized with 3% isoflurane (inhaled) and femoral artery and vein cannulas were surgically inserted. Once cannulated, the rats were transitioned to urethane anesthesia (1.5 g/kg; i.v.) and a tracheal cut-down was performed. After placing the tracheal cannula, it was connected to a pneumotach to record respiratory airflow from which respiratory rate (RR), tidal volume (VT), and their product minute volume were derived. After the surgical preparation was complete, animals were allowed to stabilize for 30 minutes while respiratory rate, tidal volume, minute volume, blood pressure and heart rate were recorded continuously. Arterial blood gases (ABG) were obtained from arterial blood collected from the femoral artery. ABG measurements were taken before and 6 minutes after vehicle and each dose of compound administered. Compounds being screened were administered via bolus injections through the venous cannula followed by a saline flush (total time of administration is approximately 30 seconds), and the animal was monitored for at least 6 minutes for changes in cardiovascular efforts. Compounds were prepared in formulations identified to ensure optimal solubility. As such, vehicle controls were matched for the formulation of each compound tested. Dosing of the compound being screened was 0.1 and 0.3 mg/kg. The next dose was not administered until all cardiovascular and respiratory measures had returned to baseline levels. The positive control compounds used were N-[4,6-di-(n-propylamino)-[1,3,5]triazin-2-yl]-O,N-dimethyl-hydroxylamine or N-[2,6-di-(n-propylamino)-[1,3]pyrimidin-4-yl]-O,N-dimethyl-hydroxylamine, both administered at the end of each screening experiment (0.3 mg/kg dose) to validate the experiment and also to serve as a measure with which the compound being screened could be compared.
Data were analyzed by collecting cardiovascular and respiratory data in 30 second averages (BINs). Data were plotted 2 minutes before challenge and then 6 minutes after challenge.
FIGS. 2A-2F summarize the effects of individual compounds on peak minute ventilation (increase in VE), overall increase in 2 minute area under the curve (AUC) which is a cumulative measure of effect, along with compound stability (half-life) in rat and human microsomes.

rat = test: Minute volume and mean blood pressure in the rat upon oral dosing (plethysmography, telemetry); format: in vivo, Male Sprague Dawley rats; settings: 20 mg/kg PO
Protocol: Compounds were administered orally to rat and evaluated for effects on ventilatory and cardiovascular parameters.
Male Sprague Dawley rats (0.30-0.38 kg, n=4) were surgically implanted with ECG/blood pressure telemeters (Telemetry Research, Inc., Auckland, New Zweland) prior to data collection. The animals were acclimated to plethysmography chambers for a minimum period of 60 minutes. After this time, test compound (20 mg/kg, PO) or vehicle (0.9% saline) was administered by oral gavage. Respiratory and cardiovascular data were collected immediately thereafter for a period of 3 h using plethysmography (Buxco, Inc.) and telemetry (LabChart data acquisition software, AD instruments, Inc.). Each rat received test compound and vehicle during the course of the study and thus each animal served as its own control. Vehicle effects were subtracted from drug response (Drug-Veh) and the difference was reported as a mean percent (%) change over time±SE.

[2] = system: rats chronically treated with morphine; test: Apnea, sleep architecture and ventilatory response in rats chronically treated with morphine; format: in vivo, Adult male lean Zucker rats; settings: 7 mg/kg PO, versus vehicle
Protocol: The objective of this study was to quantify the effects of select compounds of this invention on apnea, ventilation and sleep structure in a rat model. The study consisted of two treatment conditions: (1) chronic morphine and test compound, such as Compound 5b administered orally (7 mg/kg, PO), and (2) chronic morphine and oral vehicle. Adult male lean Zucker rats were anesthetized for electroencephalogram (EEG) and electromyogram (EMG) telemeter implantation. At least 1 week was permitted post-surgery before animals were used further. Morphine sulfate was added to the drinking water of singly housed rats beginning with 0.1 mg/ml morphine and increasing the concentration in increments so that a final concentration of 0.6 mg/ml was achieved within 2 weeks. All respiratory measurements were made while animals were unrestrained in whole-body plethysmography chambers to permit animals to sleep and move freely. To avoid eliciting withdrawal, morphine water was continuously available during each plethysmography experiment. Minute volume and the number of central sleep apneas (CSA) were measured during all treatment conditions. A period of at least 1 to 1.5 h was permitted for animals to acclimate to the chamber before data collection began. The biopotential telemeters and their receivers were placed directly under the plethysmographic chambers and were used to continuously to capture EEG, EMG, and body temperature signals. Only data collected between the hours of 10 am to 4:30 pm were used in the final analysis to control for the effects of circadian rhythm on breathing.
Compound 5b (7 mg/kg) or an equivalent volume of vehicle was administered via an oral gavage tube at 12 pm. Data collected between 10 am and 12 pm represented baseline (pre-drug) conditions. Data collected between 12 pm and 4:30 pm represented post-drug conditions. Analyses of the EEG and EMG waveforms for the purpose of staging sleep-wake behavior in rats as awake, NREM sleep, and REM sleep were based on previous sleep studies involving rodents. Central apneas were defined as a respiratory cycle period that was more than or equal to twice the average cycle period during baseline recordings, which is consistent with how others have defined central apneas in rodents. Percent time in each sleep-wake state, minute volume, and central sleep apnea counts were compared between treatment groups using a two-way ANOVA (factors: drug treatment and time). Breathing data during wakefulness was not analyzed because movement prevents measurement of accurate volumes when using whole-body plethysmography. When differences were detected with ANOVA, Student-Neuman-Keuls post hoc tests were run for all main effects and interactions. Differences were considered significant when p<0.05. Values are expressed as means±SE.

carotid body = test: Carotid sinus nerve transection (CSNTx) in urethane anesthetized rats, minute volume; format: in vivo, adult male Sprague Dawley rats
Protocol: The objective of this study was to assess the role of carotid body sinus nerve activity on ventilation, as measured by minute volume, in rats treated with compounds of this invention, such as Compound 5b, versus a saline-treated group. Urethane anesthetized adult male Sprague Dawley rats and tracheal spirometry (pneumotachometry) techniques were used (Example 56). Vehicle (saline) and Compound 5b (0.1 and 0.3 mg/kg) were administered as IV boluses to 5 rats. The carotid sinus nerves were isolated in the neck and transected thereby denervating both carotid bodies. Vehicle and Compound 5b were re-administered IV. Animals were exposed to low inspired O2 (hypoxia) to confirm functionally complete nerve transections. The change in minute volume ΔVE (% of baseline above baseline) in response to saline/Compound 5b before and after carotid body denervation was measured.

[3] = Solubility of the hydrogen sulfate salt in solvents; format: physicochemical

With `C#CCNc1nc(NCCC)nc(N(C)OC)n1.Cl` [Compound 5a, O,N-Dimethyl-N-[4-(n-propylamino)-6-(prop-2-ynylamino)-[1,3,5]triazin-2-yl]-hydroxylamine hydrochloride] the bioavailability [1] was 36%, the “duration of the increase in minute ventilation” value (anesthetized rats) was “approximately 2 minutes” and the “increase in minute ventilation above baseline values” (anesthetized rats) was “up to 143%”. The “increase in respiratory rate” value (anesthetized rats) was “up to 42%” and the “increase in tidal volume” value (anesthetized rats) was “up to 73%”.
In the case of `C#CCNc1nc(NCCC)nc(N(C)OC)n1` [Compound 5b, O,N-Dimethyl-N-[4-(n-propylamino)-6-(prop-2-ynylamino)-[1,3,5]triazin-2-yl]-hydroxylamine hydrogen sulfate], the “duration of the increase in minute ventilation” value (rat) is reported as 120 min, the “increase in minute ventilation compared to baseline” value (rat) is reported as “approximately 50%” and the “effect on mean blood pressure” value (rat; during the period of increased ventilation) is reported as “no significant effect”. For the same compound, the “central apneas during NREM sleep, percent change from baseline (pre-treatment)” value [2] was “percent change (decrease) in apnea frequency was present”, the “NREM minute volume (VE)” value ([2]; hydrogen sulfate) was “no statistically significant effects; also recorded: trend for an initial increase in minute volume between 0 to 60 min post-dose; also recorded: no discernible effect” and the REM minute volume ([2]; hydrogen sulfate) was “no visible effects”. For the same compound, the “frequency of central apneas during NREM sleep” value ([2]; hydrogen sulfate) was “decreased apnea frequency at 120 min and 150 min post-gavage compared to vehicle; also recorded: decreased apnea frequency during NREM sleep compared to vehicle and the pre-treatment (baseline) values; also recorded: significantly reduces”, the “frequency of central apneas during REM sleep” value ([2]; hydrogen sulfate) was “did not visibly alter; also recorded: no visible effect; also recorded: does not reduce” and the “minute volume prior to carotid body denervation” value (carotid body; 0.1 and 0.3 mg/kg IV bolus) was “dose-dependently increased minute volume”. The “ventilatory response after carotid sinus nerve transection” value (carotid body; 0.1 and 0.3 mg/kg IV bolus) was “completely abolished the ventilatory response”, the “ventilatory response after SHAM surgery” value (carotid body; IV bolus) was “no effect on the ventilatory response” and the “solubility in MeOH” value ([3]; MeOH) was “freely soluble”. The solubility in water ([3]; water) was “freely soluble”.
